Patent US11504367B2, “Compounds and methods for treating oxalate-related diseases” (OxaluRx, Inc., priority 2019, dated 2022)

Biological target: recombinant full-length human hydroxyacid oxidase 1 (HAO1), the equivalents of hGOX (Homo sapiens (Human), UniProt Q9UJM8)
Assay: In-vitro human glycolate oxidase (hGOX) assay (Amplex red fluorescence)
Assay type: biochemical
Conditions: 6 nM recombinant human GO, 85 μM glycolate, 10 min preincubation
Method: The in-vitro glycolate oxidase assay was performed using recombinant full-length human hydroxyacid oxidase 1 (HAO1), the equivalents of hGOX. […] Purified HAO1 was dissolved in assay buffer consisting of 10 mM NaCl, 110 mM KCl, 2 mM MgCl2, 50 mM HEPES (pH 7.4), and 0.01% Triton™ X-100.
The plates were incubated for 10 min at room temperature, at which point Amplex red reagent (50 μM) was added.
The fluorescence intensity signal was measured on a VariosKan LUX instrument using an excitation of 560 nm and an emission of 590 nm. The IC50 values were calculated using Graphpad Prism. The fluorescence signal of wells containing only DMSO was defined as 100% GO activity, while the fluorescence signal without the glycolate substrate was defined as 0% GO activity.

Chain of recombinant full-length human hydroxyacid oxidase 1 (HAO1), the equivalents of hGOX (Q9UJM8 whole entry): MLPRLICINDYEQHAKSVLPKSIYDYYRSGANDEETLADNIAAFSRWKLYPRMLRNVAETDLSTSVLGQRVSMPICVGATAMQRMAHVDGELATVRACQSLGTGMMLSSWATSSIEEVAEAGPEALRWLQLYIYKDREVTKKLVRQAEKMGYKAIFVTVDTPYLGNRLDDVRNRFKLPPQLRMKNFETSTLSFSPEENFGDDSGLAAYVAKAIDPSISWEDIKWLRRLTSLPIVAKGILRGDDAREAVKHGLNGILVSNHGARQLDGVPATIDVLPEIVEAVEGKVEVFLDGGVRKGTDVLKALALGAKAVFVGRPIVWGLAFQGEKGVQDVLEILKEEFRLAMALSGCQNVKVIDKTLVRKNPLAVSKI

Compound Cn1ccc(C#Cc2ccc(Oc3[nH]nnc3C(=O)O)cc2)cc1=O [Example 256, 4-(4-((1-Methyl-2-oxo-1,2-dihydropyridin-4-yl)ethynyl)phenoxy)-1H-1,2,3-triazole-5-carboxylic Acid] has an IC50 of 2 nM.

Compound Cc1cc(C#Cc2cccc(Oc3[nH]nnc3C(=O)O)c2)ccn1 [Example 296, 5-(3-(2-(2-Methylpyridin-4-yl)ethynyl)phenoxy)-1H-1,2,3-triazole-4-carboxylic Acid] has an IC50 of 1 nM.

Compound O=C(O)c1nn[nH]c1Oc1ccc(C#Cc2ccc(F)cc2)cc1 [Example 288, 5-(4-(2-(4-Fluorophenyl)ethynyl)phenoxy)-1H-1,2,3-triazole-4-carboxylic Acid] has an IC50 of 1 nM.

In the case of CC#Cc1ccc(Oc2[nH]nnc2C(=O)O)cc1 [Example 5, 5-(4-(Prop-1-ynyl)phenoxy)-1H-1,2,3-triazole-4-carboxylic Acid], the IC50 is reported as 12 nM.

O=C(O)c1nn[nH]c1Oc1ccc(C(F)(F)F)c(C#Cc2ccccc2)c1 [Example 263, 5-(4-(Trifluoromethyl)-3-(2-phenylethynyl)phenoxy)-1H-1,2,3-triazole-4-carboxylic Acid] showed an IC50 of 2 nM.

O=C(O)c1ccc(C#Cc2cc(F)cc(Oc3[nH]nnc3C(=O)O)c2)cc1 [Example 265, 5-(3-Fluoro-5-(2-(4-carboxyphenyl)ethynyl)phenoxy)-1H-1,2,3-triazole-4-carboxylic Acid] gave an IC50 of 3 nM.

Cn1nccc1C#Cc1ccc(Oc2[nH]nnc2C(=O)O)cc1 [Example 321, 5-(4-(2-(1-Methyl-1H-pyrazol-5-yl)ethynyl)phenoxy)-1H-1,2,3-triazole-4-carboxylic Acid] gave an IC50 of 5 nM.

Work on C#Cc1ccc(Oc2[nH]nnc2C(=O)O)cc1 [Example 2, 5-(4-Ethynylphenoxy)-1H-1,2,3-triazole-4-carboxylic Acid] yielded an IC50 of 90 nM.

For CCOC(=O)c1nn[nH]c1S(=O)(=O)c1cccc(C#CCC(C)C)c1 [Example 375, Ethyl 5-(3-(4-methylpent-1-ynyl)phenylsulfonyl)-1H-1,2,3-triazole-4-carboxylate], the IC50 was > 1000 nM.

N#Cc1ccc(C#Cc2ccc(Oc3[nH]nnc3C(=O)O)cc2F)cc1 [Example 269, 5-(4-((4-Cyanophenyl)ethynyl)-3-fluorophenoxy)-1H-1,2,3-triazole-4-carboxylic Acid] was tested, and the IC50 was 1 nM.

With COc1ccc(C#Cc2ccc(Oc3[nH]nnc3C(=O)O)cc2)cc1 [Example 280, 5-(4-(2-(4-Methoxyphenyl)ethynyl)phenoxy)-1H-1,2,3-triazole-4-carboxylic Acid] the IC50 was 4 nM.

Compound O=C(O)c1nn[nH]c1Oc1ccc(C#CC2CCOCC2)cc1 [Example 40, 5-(4-(2-(Tetrahydro-2H-pyran-4-yl)ethynyl)phenoxy)-1H-1,2,3-triazole-4-carboxylic Acid] has an IC50 of 40 nM.

With O=C(O)c1nn[nH]c1Oc1ccc(C#CCc2ccccc2)cc1 [Example 348, 5-(4-(3-Phenylprop-1-ynyl)phenoxy)-1H-1,2,3-triazole-4-carboxylic Acid] the IC50 was 5 nM.

In the case of O=C(O)c1nn[nH]c1Oc1cccc(C#Cc2cn[nH]c2)c1 [Example 320, 5-(3-(2-(1H-Pyrazol-4-yl)ethynyl)phenoxy)-1H-1,2,3-triazole-4-carboxylic Acid], the IC50 is reported as 6 nM.

Cn1ncc2cc(C#Cc3cccc(Oc4[nH]nnc4C(=O)O)c3)ccc21 [Example 317, 5-(3-(2-(1-Methyl-1H-indazol-5-yl)ethynyl)phenoxy)-1H-1,2,3-triazole-4-carboxylic Acid] gave an IC50 of 2 nM.

For O=C(O)c1nonc1Oc1cccc(C#CCC2CC2)c1 [Example 370, 4-(3-(3-Cyclopropylprop-1-ynyl)phenoxy)-1,2,5-oxadiazole-3-carboxylic Acid], the IC50 was > 1000 nM.

With CC(C)(O)C#Cc1ccc(Oc2[nH]nnc2C(=O)O)cc1 [Example 13, 5-(4-(3-Hydroxy-3-methylbut-1-ynyl)phenoxy)-1H-1,2,3-triazole-4-carboxylic Acid] the IC50 was 440 nM.

Compound O=C(O)c1nn[nH]c1Nc1ccc(C#CCC2CC2)cc1 [Example 362, 5-(4-(3-Cyclopropylprop-1-ynyl)phenylamino)-1H-1,2,3-triazole-4-carboxylic Acid] has an IC50 of 230 nM.

For CC(C)(O)C#Cc1cccc(Oc2[nH]nnc2C(=O)O)c1 [Example 215, 5-(3-(3-Hydroxy-3-methylbut-1-ynyl)phenoxy)-1H-1,2,3-triazole-4-carboxylic Acid], the IC50 was 48 nM.

O=C(O)c1nn[nH]c1Oc1ccc(C#Cc2ccccc2)cc1F [Example 260, 5-(2-Fluoro-4-(2-phenylethynyl)phenoxy)-1H-1,2,3-triazole-4-carboxylic Acid] showed an IC50 of 5 nM.

Work on Cn1ncc2cccc(C#Cc3cccc(Oc4[nH]nnc4C(=O)O)c3)c21 [Example 326, 5-(3-(2-(1-Methyl-1H-indazol-7-yl)ethynyl)phenoxy)-1H-1,2,3-triazole-4-carboxylic Acid] yielded an IC50 of 2 nM.

With Cc1cc(C#Cc2ccc(Oc3[nH]nnc3C(=O)O)cc2)ccn1 [Example 298, 5-(4-(2-(2-Methylpyridin-4-yl)ethynyl)phenoxy)-1H-1,2,3-triazole-4-carboxylic Acid] the IC50 was 3 nM.

In the case of CCOC(=O)c1nn[nH]c1Oc1cccc(C#CCC2CC2)c1 [Example 357, Ethyl 5-(3-(3-cyclopropylprop-1-ynyl)phenoxy)-1H-1,2,3-triazole-4-carboxylate], the IC50 is reported as > 1000 nM.

In the case of O=C(O)c1nn[nH]c1Oc1cccc(C#Cc2cccnn2)c1 [Example 340, 5-(3-(2-(Pyridazin-3-yl)ethynyl)phenoxy)-1H-1,2,3-triazole-4-carboxylic Acid], the IC50 is reported as 3 nM.

Compound CC(C)C#Cc1ccc(Oc2[nH]nnc2C(=O)O)cc1 [Example 9, 5-(4-(3-Methylbut-1-ynyl)phenoxy)-1H-1,2,3-triazole-4-carboxylic Acid] has an IC50 of 62 nM.

Compound O=C(O)c1nn[nH]c1Oc1cccc(C#Cc2ccc(F)cc2)c1 [Example 289, 5-(3-(2-(4-Fluorophenyl)ethynyl)phenoxy)-1H-1,2,3-triazole-4-carboxylic Acid] has an IC50 of 1 nM.

Work on Cn1cc(C#Cc2ccc(Oc3[nH]nnc3C(=O)O)cc2)cn1 [Example 220, 5-(4-(2-(1-Methyl-1H-pyrazol-4-yl)ethynyl)phenoxy)-1H-1,2,3-triazole-4-carboxylic Acid] yielded an IC50 of 4 nM.

With Cn1ccnc1C#Cc1ccc(Oc2[nH]nnc2C(=O)O)cc1 [Example 333, 5-(4-(2-(1-Methyl-1H-imidazol-2-yl)ethynyl)phenoxy)-1H-1,2,3-triazole-4-carboxylic Acid] the IC50 was 10 nM.

O=C(O)c1nn[nH]c1Oc1cc(C#Cc2ccccc2)ccc1F [Example 261, 5-(2-Fluoro-5-(2-phenylethynyl)phenoxy)-1H-1,2,3-triazole-4-carboxylic Acid] was tested, and the IC50 was 4 nM.

With Cn1ncc2ccc(C#Cc3cccc(Oc4[nH]nnc4C(=O)O)c3)cc21 [Example 319, 5-(3-(2-(1-Methyl-1H-indazol-6-yl)ethynyl)phenoxy)-1H-1,2,3-triazole-4-carboxylic Acid] the IC50 was 2 nM.

COc1cccc(C#Cc2ccc(Oc3[nH]nnc3C(=O)O)cc2)c1 [Example 286, 5-(4-(2-(3-Methoxyphenyl)ethynyl)phenoxy)-1H-1,2,3-triazole-4-carboxylic Acid] showed an IC50 of 2 nM.

O=C(O)c1nn[nH]c1Oc1cccc(C#Cc2ccccn2)c1 [Example 311, 5-(3-(2-(Pyridin-2-yl)ethynyl)phenoxy)-1H-1,2,3-triazole-4-carboxylic Acid] showed an IC50 of 3 nM.

For O=C(O)c1nn[nH]c1Oc1cccc(C#Cc2cnccn2)c1 [Example 338, 5-(3-(2-(Pyrazin-2-yl)ethynyl)phenoxy)-1H-1,2,3-triazole-4-carboxylic Acid], the IC50 was 4 nM.

Work on CS(=O)(=O)c1ccc(C#Cc2cc(F)cc(Oc3[nH]nnc3C(=O)O)c2)cc1 [Example 274, 5-(3-Fluoro-5-(2-(4-(methylsulfonyl)phenyl)ethynyl)phenoxy)-1H-1,2,3-triazole-4-carboxylic Acid] yielded an IC50 of 5 nM.

For O=C(O)c1nn[nH]c1Oc1cccc(C#CC2CCC3(CC2)OCCO3)c1 [Example 351, 5-(3-(1,4-Dioxaspiro[4.5]decan-8-ylethynyl)phenoxy)-1H-1,2,3-triazole-4-carboxylic Acid], the IC50 was 20 nM.

CS(=O)(=O)c1ccc(C#Cc2ccc(Oc3[nH]nnc3C(=O)O)cc2F)cc1 [Example 272, 5-(3-Fluoro-4-(2-(4-(methylsulfonyl)phenyl)ethynyl)phenoxy)-1H-1,2,3-triazole-4-carboxylic Acid] showed an IC50 of 2 nM.

Work on O=C(O)c1nn[nH]c1Oc1cccc(C#Cc2cccc3[nH]ncc23)c1 [Example 328, 5-(3-(2-(1H-Indazol-4-yl)ethynyl)phenoxy)-1H-1,2,3-triazole-4-carboxylic Acid] yielded an IC50 of 1 nM.

CC(C)(F)CC#Cc1cccc(Oc2[nH]nnc2C(=O)O)c1 [Example 378, 5-(3-(4-Fluoro-4-methylpent-1-ynyl)phenoxy)-1H-1,2,3-triazole-4-carboxylic Acid] was tested, and the IC50 was 40 nM.

In the case of CS(=O)(=O)c1ccc(C#Cc2cc(Oc3[nH]nnc3C(=O)O)ccc2F)cc1 [Example 266, 5-(4-Fluoro-3-(2-(4-(methylsulfonyl)phenyl)ethynyl)phenoxy)-1H-1,2,3-triazole-4-carboxylic Acid], the IC50 is reported as 2 nM.

In the case of CC(C)(C)CC#Cc1cccc(Oc2[nH]nnc2C(=O)O)c1 [Example 372, 5-(3-(4,4-Dimethylpent-1-ynyl)phenoxy)-1H-1,2,3-triazole-4-carboxylic Acid], the IC50 is reported as > 1000 nM.

Work on O=C(O)c1nn[nH]c1Oc1cccc(C#CCC2CC(F)(F)C2)c1 [Example 367, 5-(3-(3-(3,3-Difluorocyclobutyl)prop-1-ynyl)phenoxy)-1H-1,2,3-triazole-4-carboxylic Acid] yielded an IC50 of 9 nM.
